Here are results for 90 compounds from a melting point compilation (Tetko et al.; mined from patent text by program, amines drawn as free bases though some values may be those of a salt).

With `Nc1ccc2c(c1)C(=O)C2`, the melting point was 92 to 93 °C. The same measure for `CN1CCC2(CC1)c1ccccc1C(C)(O)c1c(O)cccc12` (stereo not given): 151 to 154 °C; for `CNC(=S)n1nc(Oc2ncc(C(F)(F)F)cc2Cl)cc1C`: 63 to 65 °C. Under `COc1ccc(C2=NN(CC(=O)O)C(=O)[C@H]3CC=CC[C@@H]23)cc1OC` (relative stereo) stands 178 to 180 °C; under `O=c1nc(-c2ccc(Sc3ccc(Cl)cc3)nc2)sc2ccccc12`, 222 °C; under `CC(C)(C)OC(=O)n1ccc2c([N+](=O)[O-])c(NC(=O)COCc3ccccc3)ccc21`, 145 to 146 °C. On to `CCOC(=O)C1=C(C)NC(=NC#N)NC1c1cccc([N+](=O)[O-])c1` (stereo not given), for which the melting point lay in the range of 250 to 252 °C. `CCOCc1nc2c(N)nc(C)cc2n1CCCCNS(C)(=O)=O` returned a melting point of 162 to 164 °C. Take `COc1c(/C=C/c2cc(/C=C/c3ccc4cc[nH]c4c3)n[nH]2)cccc1OCc1ccccn1`: the melting point was in the range of 109 to 114 °C. In turn, `Cc1nc2c(O)cccn2c(=O)c1CCO` yielded a melting point of 150 °C.

With `O=C(O)CCCCCc1nc2ccccc2n1-c1ccccc1`, the melting point fell in the range of 132 to 133 °C. In turn, `COC(=O)C1C2CCC(C2)C1N(C)S(=O)(=O)c1ccc(O)cc1` (stereo not given) showed a melting point of 163 to 164 °C. `O=C1Cc2ccccc2SN1` registered a melting point of 175 °C. Compound `COC(=O)c1nc2cccc(OC)c2c(O)c1C(=O)OC` gave a melting point of 184 to 186 °C.

Regarding `COC(=O)c1[nH]c(SCc2ccccn2)nc1CCNC(=O)[C@H](Cc1ccccc1)NC(=O)N(Cc1ccccc1)NC(=O)C(C)(C)C`, the melting point lay within 171 to 172 °C.

In turn, `Nc1cccc(CCO)c1` had a melting point of 61 to 64 °C. As for `CCOC(=O)c1c(C(F)(F)F)nc(-c2ccccc2)c(-c2ccccc2)c1O`, the melting point amounted to 130 °C. Consider `CNCCCc1cc(C(=O)Nc2ccc(-c3ccc(C(C)=O)cc3)cc2)ccc1OC`, for which the melting point was 195 to 196 °C. The same measure for `CC(C)(O)Cn1c(CO)nc2c(N)nc3cc(OCc4cscn4)ccc3c21`: 260 to 262 °C; for `CC(=O)SCC(=O)NCCSC=CSCCNC(=O)CSC(C)=O`: 129 °C; for `COC(=O)C1Cc2c([nH]c3ccccc23)C(c2ccoc2)N1` (stereo not given): 130 °C. With `Cc1oc(-c2ccccc2)nc1COc1ccc(COc2nn(-c3ccccc3)cc2CO)cc1`, the melting point was in the range of 118 to 119 °C. As for `Cc1cccc(SCc2ccc3nc(NC4CCN(C)CC4)n(Cc4nc(C)ccc4O)c3c2)c1`, the melting point was determined as 202 °C.

As to `OC[C@H]1O[C@@H]1c1ccc(Cl)cc1`, the melting point lay within 59 to 68 °C. On to `CN(C)CCOc1ccccc1CC(=O)N1C[C@@H]2C(=O)CCC(c3ccccc3)(c3ccccc3)[C@@H]2C1` (racemic), for which the melting point worked out at 90 °C. `CCOC(=O)Cn1c(=O)c(-c2ccccc2Cl)cc2cnc(NC3C4CN(Cc5ccccc5)CC43)nc21` (stereo not given): the melting point lay in the range of 186 to 188 °C. The same measure for `O=C(Nc1ccc(C(F)(F)F)cc1)N1CC(c2ncc(Cl)s2)C(c2ccc(F)cc2)=N1` (stereo not given): 188 to 189 °C; for `CCOC(=O)C1=C(COCCCc2nc3ccccc3n2C)NC(C)=C(C(=O)NC(C)(C)C)C1c1ccccc1Cl` (stereo not given): 202 °C; for `O=C(O)c1cccc2c(=O)cc(-c3ccc(OCc4ccccc4)cc3)oc12`: 145 to 147 °C. The same measure for `CC(=O)Nc1ccc(S(=O)(=O)N(CCCl)CCCl)cc1`: 113 to 114 °C; for `CC(=O)SCC(CCCc1ccccc1)C(=O)Nc1cccc(C(=O)O)c1` (stereo not given): 142 to 145 °C. On to `Cc1cc(CC#N)cc(Cc2nc3c(F)c(F)ccc3s2)c1`, for which the melting point was 84 to 86 °C.

For the compound `COC(=O)c1ccc([N+](=O)[O-])cc1S(=O)(=O)O`, the melting point is 92 to 94 °C. The same measure for `O=C(O)c1c(C(F)(F)F)nc2cc(C(F)(F)F)ccc2c1O`: 240 °C; for `Cn1nnc2sc(N)cc2c1=O`: 190 to 194 °C; for `CCCCn1c(=O)c2c(NC)n[nH]c2n(CCNCc2ccccc2)c1=O`: 198 to 200 °C. The same measure for `CCCCCS(=O)(=O)NC(=O)/C=C/c1ccc(OCCOC)cc1OCC1CC1`: 64.8 to 66.3 °C; for `CNC(=O)c1cc(OC)c(C(=O)NC)c(NC(=O)CCl)c1OC`: 228 to 229 °C; for `C[C@@H](Cc1c2n(c3cc(F)c(O)cc13)CCC2)NC(=O)OC(C)(C)C`: 198 to 199 °C.

Compound `NCc1cc(Cl)ccc1OCC(N)=O` yielded a melting point of 135 to 137 °C.

Compound `C=C(C)C(=O)Nc1ccc(O)c(-n2nc3ccc(Cl)cc3n2)c1` displayed a melting point of 204 to 205 °C. Compound `O=C(Cl)N1c2ccccc2C=Cc2ccccc21` yielded a melting point of 145 to 150 °C.

Regarding `CC(C)NN=C(N)Nc1c(Cl)cccc1Cl`, the melting point lay in the range of 227 to 228 °C. `Cc1cccc(-n2cc(CC(=O)O)c(-c3ccc(Cl)cc3)n2)c1`: the melting point is 129 to 130 °C. As for `O=C(Cl)c1ccc2cc(C(=O)Cl)ccc2c1`, the melting point worked out at 186 °C.

On to `CNC(=O)c1cccc(NC(=O)COc2ccc3ccccc3c2)c1`, for which the melting point came to 174 °C.

The compound `CCCn1c(=O)c2[nH]c(C(C)(C)C)nc2n(CCN(C)C(C)=O)c1=O` gave a melting point of 149 to 152 °C. `COCC1OC(n2cnc3c(NC4CCCC4)ncnc32)C(O)C1O` (stereo not given) showed a melting point of 164 to 166 °C. `COc1ccc2cc(C(C)C(=O)OCC(=O)NCCCO[N+](=O)[O-])ccc2c1` (stereo not given) showed a melting point of 51 to 53 °C. The same measure for `COc1ccc(S(=O)(=O)c2cc3c(cc2C)OC(C(=O)O)O3)cc1NC(C)=O` (stereo not given): 230 °C; for `CC1C(=O)NC(C)(C)N1C(=O)CNC(=O)CN1CC(O)CC1=O` (stereo not given): 218 to 220 °C; for `O=C(O)c1cnn2c(C(F)F)cc(-c3ccc(C(F)(F)F)c(OCC(F)(F)F)c3)nc12`: 261 °C. Under `CC(C)(C)C(=O)N(O)Cc1ccccc1Cl` stands 100 to 102 °C; under `COC(=O)c1sc2ccc(SC)cc2c1N(C)C`, 63 to 66 °C; under `CCOc1ccc(C2C(C(=O)c3ccc(C(C)C)cc3)=C(O)C(=O)N2c2ccc(C)nn2)nc1` (stereo not given), 198 to 199 °C. `Nc1c(Cl)cc(C(O)CNCCCCCC(=O)OCCc2ccsc2)cc1Cl` (stereo not given) yielded a melting point of 71 to 73 °C.

The compound `CS(=O)(=O)c1c(C(=O)NN=Cc2ccc(Cl)cc2)[nH]c2ccccc12` returned a melting point above 280 °C. `CC1(C)COc2ccc(S(=O)(=O)n3c(Cc4ccccc4C(=O)O)cc4cc(Cl)ccc43)cc21` showed a melting point of 190 °C. For the compound `O=C(C(=O)N1CCCCC1)C(Cl)Cl`, the melting point is below 50 °C. In the case of `Cc1nc(N)c2ncn(N(C)C)c2c1C`, the melting point lay in the range of 205 to 207 °C.

As for `NC1CCCCC1N1CCC(Cc2ccc(Cl)cc2)CC1` (stereo not given), the melting point is 69.1 to 70.4 °C. On to `O=C(O)C1(C(=O)O)C=CC=CN1`, for which the melting point came out at 186 °C.

Compound `O=C1OCCC1Oc1ccc(C(F)(F)F)cc1` (stereo not given) returned a melting point of 84 to 86 °C. On to `CSc1ccc(/C=C2/C(CCN(O)C(N)=O)=C(C)c3ccccc32)cc1`, for which the melting point lay within 120 to 122 °C. Compound `c1ccc(CSc2ncnc3ccccc23)nc1` displayed a melting point of 64.9 to 66.2 °C. Consider `CCc1cc(Nc2ccc(-c3ccccc3C#N)cc2)n2nccc2n1`, for which the melting point was in the range of 247 to 248 °C. The same measure for `COC(=O)C[C@H]1CC[C@H](n2nc(-c3c(-c4ccccc4)nn4ccccc34)ccc2=O)C1` (relative stereo): 105 to 107 °C; for `OCc1cccn2cc(-c3ccccc3)nc12`: 85 to 87 °C; for `Cc1cc(F)cc2[nH]c(=O)c(=O)[nH]c12`: above 300 °C. `CCCCC1NC(C(=O)O)Cc2c1[nH]c1ccccc21` (stereo not given) registered a melting point of 204 to 205 °C. The same measure for `O=S1(=O)CCN2C=C(F)C=C(c3ccc(Oc4ccccc4)cc3)C2=N1`: 91.9 to 92 °C. In turn, `CC1(C)COC(C=Cc2ccc([N+](=O)[O-])cc2)OC1` displayed a melting point of 86.5 to 88.5 °C.

`Cc1cccc(COc2cccc3c2CN(C2CCC(=O)NC2=O)C3=O)c1` (stereo not given) came in with a melting point of 244 to 246 °C.

Regarding `CON1C(=O)CC2(CCN(C(=O)CCN3C=CCC(C(N)=O)=C3)CC2)C1=O`, the melting point was 64 to 80 °C.

`Cc1ccccc1C(=O)Nc1ccc(C(=O)N2CCCC(N(C)C(=O)c3ccccc3)c3ccccc32)cc1` (stereo not given) gave a melting point of 248 to 249 °C. On to `O=C1CS(=O)(=O)C(C(=O)Nc2ccc(Cl)cc2)Cc2cc3c(cc21)OCCO3` (stereo not given), for which the melting point lay within 273 to 274 °C. Under `COc1ccccc1N1CCN(CCCNC(=O)c2cccc3c(=O)cc(-c4ccccc4)sc23)CC1` stands 144 to 146 °C; under `COc1ccc(C(=O)CCCN2CCC(OC(=O)c3cc(Cl)c(N)c4c3OCC4)CC2)cc1OC`, 156 °C.

In turn, `CC(=O)Nc1ccc(N2CCNC2=O)cc1` showed a melting point of 270 to 273 °C. The compound `COc1cccc(-c2c[nH]c3ncnc(N)c23)c1` displayed a melting point of 188 to 190 °C. For `COC(c1ccccc1Cl)c1cc(Cl)ccc1-c1c(C(=O)O)cnn1C` (stereo not given), the melting point is 210 to 213 °C. Consider `Nc1nnc(C(CCc2ccccc2)NC(=O)c2ccc3[nH]c(-c4ccncc4)nc3c2)o1` (stereo not given), for which the melting point amounted to 160 °C. The compound `CC1(C)CCC(C(=O)O)c2ccccc21` (stereo not given) had a melting point of 80 to 81 °C. The compound `CSc1cnc(NC2=NCC3(CN4CCC3CC4)O2)cn1` (stereo not given) gave a melting point of 155 to 160 °C. In the case of `COc1c(Br)c(C)nc(C)c1-c1ccc(Oc2ccc(OC(F)(F)F)cc2)cc1`, the melting point fell in the range of 39 to 41 °C. `CCOC(=O)N1Cc2ccccc2C(Oc2ccc([N+](=O)[O-])cc2)C1` (stereo not given): the melting point is 118 to 119 °C. For the compound `CC(C)C=C1CCC2(C1)C(=O)C=C(OC(C)C)CC2C` (stereo not given), the melting point lay in the range of 88 to 91 °C. Under `COC(=O)C1=CCC2CC(=O)C12` (stereo not given) stands 58 to 61 °C; under `COC(=O)c1ccc(C=CC(=O)Nc2cnc3c(C)cc(C)cc3c2-c2ccccc2Cl)cc1`, 225 to 226 °C. `CC1(C)C2CC[C@@]1(N1CCOCC1)C(=O)C2`: the melting point lay in the range of 89.5 to 90.5 °C.
